Patent US4607012A, “Antibiotic SB 22484” (Gruppo Lepetit S.p.A., priority 1983, dated 1986)

Experiments:
N. gonorrhoeae L 1599 = assay: in vitro antibacterial activity (standard dilution test); assay type: cell-based; conditions: Neisseria gonorrhoeae, L1599; N. gonorrhoeae L 1599, clinically isolated, penicillinase producing; GC agar base + 1% Iso-Vitalex, CO2 enriched, 18-24 h, 37° C
Experimental: (§1) Iso-Sensitest broth (Oxoid) and Todd-Hewitt broth (Difco) are used for staphylococci and streptococci, respectively, Neisseriae strains are cultured on GC agar base (Difco)+1% Iso-Vitalex (BBL) and Hemophylus is cultured on GC agar base (Difco)+1% Iso-Vitalex (BBL)+1% hemoglobin (Difco). Broth cultures are diluted so that the final inoculum is about 10^4 -10^5 colony forming units/ml (CFU/ml). […] Neisseriae strains are incubated in a CO2 enriched atmosphere.

N. gonorrhoeae L 1596 = assay: as above; assay type: cell-based; conditions: Neisseria gonorrhoeae, L1596; N. gonorrhoeae L 1596, clinically isolated, resistant to spectinomycin; GC agar base + 1% Iso-Vitalex, CO2 enriched, 18-24 h, 37° C
Experimental: as §1

## CC1(C)S[C@@H]2[C@H](NC(=O)Cc3ccccc3)C(=O)N2[C@H]1C(=O)O [penicillin]
N. gonorrhoeae L 1599
  MIC: > 50 µg/mL

## CN[C@@H]1[C@H](O)[C@H](NC)[C@H]2O[C@@]3(O)C(=O)C[C@@H](C)O[C@H]3O[C@@H]2[C@H]1O [spectinomycin]
N. gonorrhoeae L 1596
  MIC: > 12 µg/mL
